# Key:
# Format in all cases: cell-based
# [1] = biological target: T1, SALL4 (Homo sapiens, UniProt Q96SW2+Q9UJQ4); experiment: HEK293 HiBiT in vitro degradation of SALL4; conditions: 18-24 hr incubation, normalized to DMSO control, read-out: SALL4 EC50
# T1 construct: expressed in transfected cells
# Experimental: In vitro degradation of IKZF1, IKZF2, and SALL4 was measured using HiBiT protein tagging and detection technology (Promega).
# HiBit technology was used to develop the quantitative assays to measure the cellular IKZFs level by tagging an 11 amino acid HiBit peptides […] to the protein of interest. Reporter plasmids were generated by fusing a linker sequence ([…]) followed by the HiBit tag at the C-terminus of IKZF1, IKZF2, and SALL4. The fusion fragments were subsequently cloned into pcDNA5 pcDNA™5/FRT/TO plasmids (Thermo Fisher, cat #V652020) downstream of the tetracycline operator. The resulting plasmids were co-transfected with pOG44 Flp-Recombinase Expression Vector (Thermo Fisher, cat #V600520) into Flp-In™ T-REx HEK293 line (Thermo Fisher, cat #R78077) and a stable cell pool was selected by adding 100 µg/ml of Hygromycin (Thermo Fisher, cat #10687010). The reporter cell enabled Tet-On inducible reporter expression from a single copy of the integrated gene.
# On Day 1, Cells were grown to ˜80% confluency in tissue culture medium (DMEM Glutamax (Gibco10569), 10% Tet free FBS (Takara 631106), and PenStrep Glutamin (Gibco 10378)) in tissue culture flasks. Doxycycline was then added to a final concentration of […] to induce reporter expression at 37° C. overnight.
# On Day 2, 125 nL of serially-diluted solution of testing compounds were dispensed into 384-well white solid assay plates via ECHO acoustic liquid handler. Cells were lifted by 0.25% Trypsin (Gibco 25200) then pelleted by centrifugation (Beckman Avanti J-E) at 500×g for 5 min. Cell pellets were resuspended in TC medium at the concentration of 3e5/mL and 25 μL of cell suspension were added into each well of compound-spotted plates. The plates were returned to a 37° C. incubator overnight (18-24 hr).
# On Day 3, assay plates were removed from the tissue culture incubator and 25 μL of Nano-Glo lytic detection system (Promega, cat #N3030) was added to each well. Plates were incubated at r.t. for 3 min with shaking, and luminescence was read using an Envision reader (Perkin Elmer).
# To assess the IKZF1, IKZF2, and SALL4 degrader potential of exemplified compounds of this disclosure and certain Reference Compounds EC50 and Dmax values were determined for the compounds of Examples 1 to 383 and Reference Compounds A-1, B-1, B-2, B-3, B-4, and C-1 in the HiBiT assays. Asterisks (*) indicate examples for which the data shown represents an average of n≥3.
# [2] = biological target: T2, IKZF1 (Homo sapiens, UniProt Q13422+Q96SW2); experiment: HEK293 HiBiT in vitro degradation of IKZF1; conditions: for DC50: 18-24 hr incubation, normalized to DMSO control, read-out: IKZF1 EC50; for Dmax: HEK293, HEK293 HiBiT
# T2 construct: expressed in transfected cells
# Summary of the method: (§1)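 Flp-In T-REx HEK293 stable pools carry a single integrated copy of C-terminal HiBiT-tagged IKZF1, IKZF2 or SALL4 under a tetracycline operator, induced overnight at 37 °C with doxycycline ([…] final). Cells were then treated with serially diluted compounds for 18-24 h. Nano-Glo lytic luminescence gave EC50 and Dmax.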
# [3] = biological target: T3, IKZF2 (Homo sapiens, UniProt Q96SW2+Q9UKS7); experiment: HEK293 HiBiT in vitro degradation of IKZF2; parameters: expressed in transfected cells; conditions: for DC50: 18-24 hr incubation, normalized to DMSO control, read-out: IKZF2 EC50; for IKZF2 Dmax / Dmax: maximum degradation at the highest concentration tested
# Summary of the method: as §1
# Target sequence in this assay (Q9UKS7 1-500 isoform Q9UKS7-2): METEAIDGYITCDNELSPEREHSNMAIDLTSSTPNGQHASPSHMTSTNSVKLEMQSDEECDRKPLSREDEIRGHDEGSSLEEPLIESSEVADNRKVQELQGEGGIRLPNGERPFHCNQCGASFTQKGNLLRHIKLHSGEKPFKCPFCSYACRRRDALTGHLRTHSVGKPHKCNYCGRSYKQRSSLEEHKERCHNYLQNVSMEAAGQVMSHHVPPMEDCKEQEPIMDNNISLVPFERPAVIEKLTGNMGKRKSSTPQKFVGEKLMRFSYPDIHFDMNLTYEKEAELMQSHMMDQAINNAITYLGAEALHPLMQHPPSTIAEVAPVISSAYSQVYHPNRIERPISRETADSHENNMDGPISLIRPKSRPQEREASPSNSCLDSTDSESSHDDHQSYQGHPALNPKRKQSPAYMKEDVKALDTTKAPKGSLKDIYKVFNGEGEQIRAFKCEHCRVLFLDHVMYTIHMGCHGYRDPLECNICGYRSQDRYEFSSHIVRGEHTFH
# Target sequence in this assay (Q96SW2 whole entry): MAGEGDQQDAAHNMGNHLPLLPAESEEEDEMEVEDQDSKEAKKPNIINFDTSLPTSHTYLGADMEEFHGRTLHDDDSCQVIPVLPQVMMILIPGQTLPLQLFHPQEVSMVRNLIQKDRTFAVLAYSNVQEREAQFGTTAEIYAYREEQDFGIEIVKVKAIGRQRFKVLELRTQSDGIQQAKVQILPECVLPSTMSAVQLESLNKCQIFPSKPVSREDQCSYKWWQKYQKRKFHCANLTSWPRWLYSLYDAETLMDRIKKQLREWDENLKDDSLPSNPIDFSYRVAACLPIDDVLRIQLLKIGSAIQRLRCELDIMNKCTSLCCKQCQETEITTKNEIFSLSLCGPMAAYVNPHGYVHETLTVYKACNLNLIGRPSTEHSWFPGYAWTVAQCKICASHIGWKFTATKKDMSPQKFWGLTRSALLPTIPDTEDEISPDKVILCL
# Target sequence in this assay (Q16531 whole entry partner): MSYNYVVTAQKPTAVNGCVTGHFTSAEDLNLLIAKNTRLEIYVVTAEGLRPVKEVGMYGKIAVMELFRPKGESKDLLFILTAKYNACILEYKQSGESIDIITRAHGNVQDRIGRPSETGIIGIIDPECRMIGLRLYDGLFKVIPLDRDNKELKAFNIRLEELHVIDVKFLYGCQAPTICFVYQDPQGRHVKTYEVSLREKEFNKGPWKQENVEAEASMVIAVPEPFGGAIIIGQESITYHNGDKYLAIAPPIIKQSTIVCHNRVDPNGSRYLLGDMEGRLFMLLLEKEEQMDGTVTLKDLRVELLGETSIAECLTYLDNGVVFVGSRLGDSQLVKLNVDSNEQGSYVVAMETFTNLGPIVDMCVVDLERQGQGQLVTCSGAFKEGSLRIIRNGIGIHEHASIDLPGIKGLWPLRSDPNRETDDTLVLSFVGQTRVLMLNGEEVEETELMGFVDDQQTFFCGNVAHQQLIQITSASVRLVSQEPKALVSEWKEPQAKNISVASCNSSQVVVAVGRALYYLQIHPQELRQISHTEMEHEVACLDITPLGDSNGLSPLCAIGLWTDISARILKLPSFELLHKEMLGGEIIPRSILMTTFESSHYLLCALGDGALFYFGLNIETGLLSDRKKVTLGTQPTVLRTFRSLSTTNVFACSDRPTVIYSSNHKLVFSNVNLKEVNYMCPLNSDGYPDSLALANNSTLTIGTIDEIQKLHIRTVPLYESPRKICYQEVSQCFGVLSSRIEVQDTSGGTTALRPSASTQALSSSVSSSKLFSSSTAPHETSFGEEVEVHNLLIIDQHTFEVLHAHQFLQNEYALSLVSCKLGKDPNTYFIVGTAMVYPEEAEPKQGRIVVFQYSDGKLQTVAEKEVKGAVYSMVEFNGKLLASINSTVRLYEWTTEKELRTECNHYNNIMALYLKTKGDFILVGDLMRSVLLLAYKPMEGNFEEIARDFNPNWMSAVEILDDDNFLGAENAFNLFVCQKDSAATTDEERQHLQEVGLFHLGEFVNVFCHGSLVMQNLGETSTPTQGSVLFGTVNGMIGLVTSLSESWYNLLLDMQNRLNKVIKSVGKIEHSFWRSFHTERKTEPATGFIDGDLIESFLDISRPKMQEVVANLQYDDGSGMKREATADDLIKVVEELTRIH
# [4] = biological target: T3, IKZF2; experiment: Human whole blood IKZF2 degradation (flow cytometry, CD4/CD25/Foxp3+ Treg cells); parameters: endogenous in cells; conditions: 24 hrs incubation, IKZF2 MFI in CD4/CD25/Foxp3+ Treg cells, flow cytometry; for DC50: read-out: IKZF2 EC50
# Summary of the method: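 Fresh healthy-donor human whole blood stimulated with CD3/CD28 activator and serially diluted compound for 24 hrs at 37° C. IKZF2 MFI in CD4/CD25/Foxp3+ Tregs (IKZF1 MFI in CD4+ T cells) measured by flow cytometry after RBC lysis, fixation, permeabilization. EC50 and Dmax versus DMSO wells.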
# Target sequence in this assay (Q9UKS7 whole entry): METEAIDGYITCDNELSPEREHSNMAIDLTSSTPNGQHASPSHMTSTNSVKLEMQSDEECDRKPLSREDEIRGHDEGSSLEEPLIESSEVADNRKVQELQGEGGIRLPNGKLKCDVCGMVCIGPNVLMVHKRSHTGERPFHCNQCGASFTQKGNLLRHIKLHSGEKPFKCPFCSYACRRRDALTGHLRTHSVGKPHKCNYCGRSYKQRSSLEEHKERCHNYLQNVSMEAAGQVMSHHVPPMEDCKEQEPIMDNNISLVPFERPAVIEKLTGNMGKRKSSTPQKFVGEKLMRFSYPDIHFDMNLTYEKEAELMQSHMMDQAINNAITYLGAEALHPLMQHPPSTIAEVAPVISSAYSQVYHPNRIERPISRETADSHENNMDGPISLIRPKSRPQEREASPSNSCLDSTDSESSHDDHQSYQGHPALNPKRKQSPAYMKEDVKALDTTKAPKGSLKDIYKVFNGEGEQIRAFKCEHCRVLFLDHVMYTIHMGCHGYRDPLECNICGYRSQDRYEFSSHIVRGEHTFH
# Target sequence in this assay (Q96SW2 whole entry): as the sequence (Q96SW2 whole entry) above
# Target sequence in this assay (Q16531 whole entry partner): as the sequence (Q16531 whole entry partner) above
# [5] = maximum degradation at the highest concentration tested
# T2 sequence (Q13422 whole entry): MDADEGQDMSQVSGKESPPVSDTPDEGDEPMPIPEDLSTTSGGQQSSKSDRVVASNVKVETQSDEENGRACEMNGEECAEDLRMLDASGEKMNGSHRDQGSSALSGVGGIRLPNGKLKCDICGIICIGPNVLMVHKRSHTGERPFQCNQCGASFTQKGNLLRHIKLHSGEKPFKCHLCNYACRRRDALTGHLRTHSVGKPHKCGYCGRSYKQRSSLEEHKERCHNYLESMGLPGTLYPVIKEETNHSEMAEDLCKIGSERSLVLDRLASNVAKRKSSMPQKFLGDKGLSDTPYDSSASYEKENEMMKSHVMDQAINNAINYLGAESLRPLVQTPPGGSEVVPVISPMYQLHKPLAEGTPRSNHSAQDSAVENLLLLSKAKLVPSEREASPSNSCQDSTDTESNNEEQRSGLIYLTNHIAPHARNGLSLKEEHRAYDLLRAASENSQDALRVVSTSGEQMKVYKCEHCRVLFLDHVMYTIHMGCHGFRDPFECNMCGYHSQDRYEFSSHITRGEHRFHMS
# T2 sequence (Q96SW2 whole entry): as the sequence (Q96SW2 whole entry) above
# T2 sequence (Q16531 whole entry partner): as the sequence (Q16531 whole entry partner) above
# T1 sequence (Q9UJQ4 whole entry): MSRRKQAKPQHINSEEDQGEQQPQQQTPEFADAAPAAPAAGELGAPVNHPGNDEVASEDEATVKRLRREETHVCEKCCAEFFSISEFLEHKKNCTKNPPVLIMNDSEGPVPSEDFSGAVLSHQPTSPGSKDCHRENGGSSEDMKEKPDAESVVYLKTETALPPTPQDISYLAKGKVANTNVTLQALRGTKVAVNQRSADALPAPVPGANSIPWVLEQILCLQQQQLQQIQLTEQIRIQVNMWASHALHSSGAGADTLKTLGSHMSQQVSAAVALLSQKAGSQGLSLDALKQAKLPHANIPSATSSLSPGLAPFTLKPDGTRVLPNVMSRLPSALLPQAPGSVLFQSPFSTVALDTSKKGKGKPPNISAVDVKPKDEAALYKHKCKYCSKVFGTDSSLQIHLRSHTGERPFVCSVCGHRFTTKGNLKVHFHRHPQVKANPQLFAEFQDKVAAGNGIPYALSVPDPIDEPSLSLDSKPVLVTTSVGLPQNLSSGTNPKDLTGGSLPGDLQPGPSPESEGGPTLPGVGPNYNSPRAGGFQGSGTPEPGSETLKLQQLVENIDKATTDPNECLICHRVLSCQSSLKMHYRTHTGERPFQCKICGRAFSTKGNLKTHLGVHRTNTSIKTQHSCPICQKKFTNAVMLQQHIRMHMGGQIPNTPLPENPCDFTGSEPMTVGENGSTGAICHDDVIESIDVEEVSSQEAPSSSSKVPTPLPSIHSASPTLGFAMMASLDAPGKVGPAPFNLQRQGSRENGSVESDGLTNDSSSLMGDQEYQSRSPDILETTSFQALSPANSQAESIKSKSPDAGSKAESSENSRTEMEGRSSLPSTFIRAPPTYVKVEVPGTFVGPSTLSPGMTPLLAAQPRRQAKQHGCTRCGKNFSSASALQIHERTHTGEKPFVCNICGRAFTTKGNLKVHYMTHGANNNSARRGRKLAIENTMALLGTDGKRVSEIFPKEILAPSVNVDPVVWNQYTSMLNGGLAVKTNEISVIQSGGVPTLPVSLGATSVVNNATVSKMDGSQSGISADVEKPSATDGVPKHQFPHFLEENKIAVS
# T1 sequence (Q96SW2 whole entry): as the sequence (Q96SW2 whole entry) above
# T1 sequence (Q16531 whole entry partner): as the sequence (Q16531 whole entry partner) above
Structure (SMILES),DC50 [1] [nM],DC50 ([2]; HEK293 HiBiT) [nM],DC50 ([3]; HEK293 HiBiT) [nM],IKZF2 Dmax ([3]; HEK293 HiBiT) [%],"Dmax ([3]; HEK293, HEK293 HiBiT) [%]","Dmax [2, 5] [%]","IKZF1 Dmax ([2]; HEK293 HiBiT, maximum degradation at the highest concentration tested) [%]",Dmax [4] [%],DC50 [4] [nM],IKZF2 Dmax [4] [%],Dmax ([3]; HEK293 HiBiT) [%]
"COCC1CCC(N[C@H]2CCCO[C@@H]2Cc2ccc3c(c2F)CN(C2CCC(=O)NC2=O)C3=O)CC1 (single isomer, unassigned) [Example 265]",> 10000,> 1000,3,96,,,,,,,
"COC1(C)CCC(N[C@H]2CCCO[C@@H]2Cc2ccc3c(c2F)CN(C2CCC(=O)NC2=O)C3=O)CC1 (single isomer, unassigned) [Example 316]",> 10000,> 1000,7,,95,,,,,,
"CC1CC[C@H](NC2CCC(F)(F)CC2)[C@@H](Cc2ccc3c(c2)CN(C2CCC(=O)NC2=O)C3=O)C1 (single isomer, unassigned) [Example 324]",> 10000,16,3,,95,71,,,,,
"O=C1CCC(N2Cc3c(ccc(C[C@H]4OCCC[C@@H]4NC4CCC(OC(F)F)CC4)c3F)C2=O)C(=O)N1 (single isomer, unassigned) [Example 327]",> 10000,535,3,96,,,,,,,
"O=C1CC[C@H](N2Cc3c(ccc(C[C@H]4OCCC[C@@H]4N[C@H]4CC[C@H](C(F)F)CC4)c3F)C2=O)C(=O)N1 (single isomer, unassigned) [Example 330]",> 10000,37,3,,94,28,,,,,
"O=C1CC[C@@H](N2Cc3c(ccc(C[C@H]4OCCC[C@@H]4N[C@H]4CC[C@H](C(F)F)CC4)c3F)C2=O)C(=O)N1 (single isomer, unassigned) [Example 331]",> 10000,448,4,,96,,,,,,
"O=C1CC[C@H](N2Cc3c(ccc(C[C@H]4OCCC[C@@H]4NC4CCC(F)(F)CC4)c3F)C2=O)C(=O)N1 (single isomer, unassigned) [Example 332]",> 10000,> 1000,6,,95,,,,,,
"O=C1CC[C@@H](N2Cc3c(ccc(C[C@H]4OCCC[C@@H]4NC4CCC(F)(F)CC4)c3F)C2=O)C(=O)N1 (single isomer, unassigned) [Example 333]",> 10000,210,9,,94,,,,,,
"O=C1CC[C@H](N2Cc3c(ccc(C[C@H]4CCCC[C@@H]4NC4CCC(F)(F)CC4)c3F)C2=O)C(=O)N1 (single isomer, unassigned) [Example 334]",> 10000,13,1,,97,59,,,,,
"O=C1CC[C@@H](N2Cc3c(ccc(C[C@H]4CCCC[C@@H]4NC4CCC(F)(F)CC4)c3F)C2=O)C(=O)N1 (single isomer, unassigned) [Example 335]",> 10000,16,1,,97,62,,,,,
"O=C1CCC(N2Cc3cc(C[C@H]4CCCC[C@@H]4NC4CCc5c(C(F)(F)F)n[nH]c5C4)ccc3C2=O)C(=O)N1 (single isomer, unassigned) [Example 362]",> 10000,114,11,,97,39,,,,,
"O=C1CCC(N2Cc3cc(C[C@H]4CCCC[C@@H]4NC4CCc5c(C(F)(F)F)n[nH]c5C4)ccc3C2=O)C(=O)N1 (single isomer, unassigned) [Example 363]",> 10000,50,1,97,,,56,,,,
"O=C1CCC(N2Cc3c(ccc(C[C@H]4OCCC[C@@H]4NC4CCC5(CC4)CC5(F)F)c3F)C2=O)C(=O)N1 (single isomer, unassigned) [Example 364]",> 10000,45,3,,96,37,,,,,
"O=C1CCC(N2Cc3cc(C[C@H]4OCCC[C@@H]4NC4CCC(F)CC4)ccc3C2=O)C(=O)N1 (single isomer, unassigned) [Example 366]",> 10000,> 1000,17,,85,,,,,,
"O=C1CCC(N2Cc3cc(C[C@H]4OCCC[C@@H]4NC4CCC(F)CC4)ccc3C2=O)C(=O)N1 (single isomer, unassigned) [Example 367]",> 10000,> 1000,15,87,,,,,,,
O=C1CCC(N2Cc3cc(C[C@H]4C[C@H](F)CC[C@@H]4NC4CCC(F)(F)CC4)ccc3C2=O)C(=O)N1 (stereo partly shown) [Example 169],> 10000,79,1,,97,42,,,,,
[2H]C1(N[C@H]2CCCC[C@@H]2Cc2ccc3c(c2F)CN(C2CCC(=O)NC2=O)C3=O)CCC(F)(F)CC1 (stereo partly shown) [Example 209],> 10000,35,1,,97,62,,,,,
CC1(C)CC(N[C@H]2CCCO[C@@H]2Cc2ccc3c(c2F)CN(C2CCC(=O)NC2=O)C3=O)CCO1 (stereo partly shown) [Example 222],,> 1000,18,,96,,,95,6,,
CC1(C)CC(N[C@H]2CCCO[C@@H]2Cc2ccc3c(c2F)CN(C2CCC(=O)NC2=O)C3=O)CCO1 (stereo partly shown) [Example 223],,> 1000,12,96,,,,,3,95,
O=C1CCC(N2Cc3c(ccc(C[C@H]4OCCC[C@@H]4NC4CCOCC4)c3F)C2=O)C(=O)N1 (stereo partly shown) [Example 305],,> 1000,14,,96,,,95,4,,
O=C1CCC(N2Cc3c(ccc(C[C@H]4OCCC[C@@H]4NC4CCN(CC(F)(F)F)CC4)c3F)C2=O)C(=O)N1 (stereo partly shown) [Example 308],> 10000,> 1000,12,,96,,,,,,
O=C1CCC(N2Cc3c(ccc(C[C@H]4OCCC[C@@H]4NC4CCN(CC(F)F)CC4)c3F)C2=O)C(=O)N1 (stereo partly shown) [Example 309],> 10000,> 1000,16,,,,,,,,96

# — patent US11897862B2 (Gilead Sciences, Inc., priority 2022, dated 2024)
